# Measurements: patent US9220264B2, “Multimeric forms of antimicrobial peptides” (Singapore Health Services Pte Ltd., priority 2008, dated 2015)
# Like-named read-outs stand apart in the source and are kept apart here. Bridge positions count the residues as written; N and C are the ends. Peptide text beside a SMILES is read from it. I, II: the chains in the order shown.
# Experiments:
# [1] = test system: Clinical Pseudomonas aeruginosa PA3-PAE 240 DU14476/07 Source: Urine; type: cell-based; conditions: USP Phosphate Buffer pH 7.2, 4 hrs, 35° C.
# Procedure: (§1) The method for testing antimicrobial activity of antimicrobial peptides used an absolute killing procedure as described below. The bacterial cultures were grown on Trypticase Soy Agar (TSA) […], and the yeast culture on Sabouraud Dextrose Agar ([…] 35° C. for 16 hours. The organisms were harvested by centrifugation and washing twice in Phosphate buffer, pH 7.2 (United States Pharmacopeia, USP) at 20° C. The freeze-dried antimicrobial compound was dissolved in purified water and distributed into screw-capped plastic tubes at a concentration of 1,000 micro-grams (μg) per ml. These served as stock solutions and were kept at -20° C. On the day of conducting the test, one tube of the stock solution was defrosted and diluted in purified water to a concentration of 500 μg/ml. Thereafter, further dilutions were carried out in either USP Phosphate Buffer, pH 7.2 or other solutions (including but not limited to 10 mM sodium phosphate buffer, pH 7.4, 10 mM potassium buffer 7.2 or 155.2 mM NaCl), to the test concentrations required, normally ranging from 6.25 μg/ml to 50 μg/ml. Ten micro-liters (μl) of the test organism of standardised concentration was inoculated into one ml of the compound test solution of specific test concentration to provide a final count of between 1×10^5 cfu/ml and 1×10^6 cfu/ml as far as possible. The inoculated test solutions were than incubated at 35° C. for 4 hours. The incubation temperature and time may be varied as required. After incubation, the antimicrobial activity of the test solutions was inactivated by a 10-fold dilution in D/E Neutralising Broth (NB). Further dilutions were carried out in the NB, and plated out in TSA for bacteria, and SDA for yeast culture. The plates were incubated at 35° C. for 72 hours. The viable count of the survivor organisms was then determined. As an inoculum control, the test organism was inoculated, parallel to the Test, into the buffer used in the preparation of the test solutions instead and incubated under the same condition as the Test. The viable count of the inoculum control was determined as for the Test. […] The method described above was used for Examples 3-7 and in particular, the method for gentamicin in Example 6 is similar except that gentamicin was substituted for the antimicrobial compound.
# [2] = test system: Clinical Pseudomonas aeruginosa Ps-D 07DM023104 Source: Eye; type: cell-based; conditions: USP Phosphate Buffer pH 7.2, 4 hrs, 35° C.
# Procedure: as §1
# [3] = test system: Clinical Pseudomonas aeruginosa PA2-PAE 239 DM5790/07 Source: Wound; type: cell-based; conditions: USP Phosphate Buffer pH 7.2, 4 hrs, 35° C.
# Procedure: as §1
# [4] = test system: Clinical Pseudomonas aeruginosa PA4-PAE 249 DM15013 Source: Wound; type: cell-based; conditions: USP Phosphate Buffer pH 7.2, 4 hrs, 35° C.
# Procedure: as §1
# [5] = test system: Clinical Pseudomonas aeruginosa PA1-PAE 230 DR4877/07 Source: Sputum; type: cell-based; conditions: USP Phosphate Buffer pH 7.2, 4 hrs, 35° C.
# Procedure: as §1
# [6] = test system: Clinical Pseudomonas aeruginosa Ps-C 07DM023155 Source: Eye; type: cell-based; conditions: USP Phosphate Buffer pH 7.2, 4 hrs, 35° C.
# Procedure: as §1
# [7] = test system: Clinical Escherichia coli DB16027 Source: Blood; type: cell-based
# Procedure: (§2) MICs was determined by broth macrodilution method modified from that described by the National Committee for Clinical Laboratory Standards (NCCL). The Mueller Hinton Broth (MHB) at ⅙ strength and without addition of Ca^2+ and Mg^2+ was used for dilution. Serial twofold dilutions of V2 dimer solution was prepared in MHB (⅙ strength) in test tubes. 1 ml of inoculum of test organisms in MHB (⅙ strength) was added to 1 ml of each dilution of V2 dimer to yield as final concentration of 10^4 to 10^5 colony forming units/ml in each test tube. The tubes were incubated at 35° C. for 16 to 20 hours. A positive control containing only the broth and organism, and a negative control tube containing only the broth were also incubated in parallel to the test samples. The above was repeated for each different test organism in separate experiments. The MIC of V2 dimer peptide for each clinical isolate or reference organism was read as the lowest concentration of peptide that inhibited visible growth of the test organism.
# (§3) The MIC was also determined for other peptides and compared to gentamicin.
# [8] = test system: Clinical Pseudomonas aeruginosa PAE 239 DM5790/07 Source: Wound; type: cell-based
# Procedure: as §2, §3
# [9] = test system: Clinical Pseudomonas aeruginosa PAE 230 DR4877/07 Source: Sputum; type: cell-based
# Procedure: as §2, §3
# [10] = test system: Methicillin-resistant staphylococcus aureus (MRSA) DM09808R Source: Eye; type: cell-based
# Procedure: as §2, §3
# [11] = test system: Clinical Cadida albicans DF2672R Source: Urine; type: cell-based, Candida albicans
# Procedure: as §2, §3
# [12] = test system: human conjunctival epithelial cells; type: cell-based
# Procedure: The results are from four independent experiments and data points show the mean and standard deviations. The X axis indicates the peptide concentration in μg/ml and the Y axis indicates the % cell viability. The cytotoxicity of V2 dimer were tested against human conjunctival cells according to the method described in WO 2007/126392 and compared with native hBD3. […] Wildtype hBD3 was cytotoxic at concentrations of about 15 μg/ml, however, the V2 dimer was not cytotoxic at concentrations of 100 μg/ml.
# [13] = test system: Pseudomonas aeruginosa ATCC 27853; type: cell-based
# Procedure: as §2, §3
# [14] = test system: Clinical Pseudomonas aeruginosa PAE 249 DM15013 Source: Wound; type: cell-based; conditions: Clinical PAE 249 DM15013 Source: Wound
# Procedure: as §2, §3
# [15] = test system: Clinical Pseudomonas aeruginosa PAE 240 DU14476/07 Source: Urine; type: cell-based; conditions: Clinical PAE 240 DU14476/07 Source: Urine
# Procedure: as §2, §3
# [16] = test system: Clinical Escherichia coli DU46381R Source: Urine; type: cell-based
# Procedure: as §2, §3
# [17] = test system: Clinical Pseudomonas aeruginosa DM 023104 Source: Eye; type: cell-based; conditions: Clinical DM 023104 Source: Eye
# Procedure: as §2, §3
# [18] = test system: Clinical Pseudomonas aeruginosa 07DM023376 Source: Eye; type: cell-based; conditions: Clinical 07DM023376 Source: Eye
# Procedure: as §2, §3
# [19] = test system: Fusarium solani ATCC 36031; type: cell-based
# Procedure: as §2, §3
# [20] = test system: Clinical Pseudomonas aeruginosa 07DM 023257 Source: Eye; type: cell-based; conditions: Clinical 07DM 023257 Source: Eye
# Procedure: as §2, §3
# [21] = test system: Clinical Staphylococcus aureus DM4001 Source: Eye; type: cell-based
# Procedure: as §2, §3
# [22] = test system: Clinical Pseudomonas aeruginosa DM 023155 Source: Eye; type: cell-based; conditions: Clinical DM 023155 Source: Eye
# Procedure: as §2, §3
# [23] = test system: Candida albicans ATCC10231; type: cell-based
# Procedure: as §2, §3
# [24] = test system: Bacillus cereus ATCC 11778; type: cell-based
# Procedure: as §2, §3
# [25] = test system: Escherichia coli ATCC25922; type: cell-based
# Procedure: as §2, §3
# Kp ATCC 10031 = type: cell-based, Klebsiella pneumoniae; conditions: ATCC 10031, 24 h
# Procedure: The minimum inhibitory concentration (MIC) was determined using a broth microdilution method. Different strains of bacterial cells were grown in Mueller Hinton Broth (MHB) overnight. 100 μl of adjusted inoculum in MHB was added to 100 μl of each dilution of peptide or antibiotics dissolved in the broth, so as to yield a final cell density of 10^5 to 10^6 cfu/ml in each well of a microtitre plate. Additional microtitre plates may be used as necessary, if more wells are required for the assay or duplicate plates are required. The microtitre plates were incubated at 35° C. for 24 h and the absorbance at 600 nm (OD600) was monitored every 30 minutes. […] A positive control well contained the broth and organisms (no peptides/antibiotics), and a negative control well contains only the broth. The MIC of peptides for each clinical isolate or reference organism was recorded as the lowest concentration of peptide/antibiotic that inhibited visible growth of the test organism. […]
# [26] = MHB 1/6 strength, 35° C., 16 to 20 hours
# [27] = Clinical PAE 239 DM5790/07 Source: Wound
# [28] = Clinical PAE 230 DR4877/07 Source: Sputum
molecule,measurement,setting,value
Gentamicin,Log Reduction,[1]; 3.125 ug/ml,3.66
same,Log Reduction,[1]; 6.25 ug/ml,3.76
same,Log Reduction,[1]; 12.5 ug/ml,3.88
same,Log Reduction,[1]; 25.0 ug/ml,4.18
same,Log Reduction,[1]; 50.0 ug/ml,4.57
same,Log Reduction,[2]; 3.125 ug/ml,>4.33
same,Log Reduction,[2]; 6.25 ug/ml,>4.33
same,Log Reduction,[2]; 12.5 ug/ml,>4.33
same,Log Reduction,[2]; 25.0 ug/ml,>4.33
same,Log Reduction,[2]; 50.0 ug/ml,>4.33
same,Log Reduction,[3]; 3.125 ug/ml,3.02
same,Log Reduction,[3]; 6.25 ug/ml,3.07
same,Log Reduction,[3]; 12.5 ug/ml,3.03
same,Log Reduction,[3]; 25.0 ug/ml,3.04
same,Log Reduction,[3]; 50.0 ug/ml,3.31
same,Log Reduction,[4]; 3.125 ug/ml,2.28
same,Log Reduction,[4]; 6.25 ug/ml,2.41
same,Log Reduction,[4]; 12.5 ug/ml,2.50
same,Log Reduction,[4]; 25.0 ug/ml,2.60
same,Log Reduction,[4]; 50.0 ug/ml,2.63
same,Log Reduction,[5]; 3.125 ug/ml,0.22
same,Log Reduction,[5]; 6.25 ug/ml,0.35
same,Log Reduction,[5]; 12.5 ug/ml,0.65
same,Log Reduction,[5]; 25.0 ug/ml,0.54
same,Log Reduction,[5]; 50.0 ug/ml,0.39
same,Log Reduction,[6]; 3.125 ug/ml,>4.61
same,Log Reduction,[6]; 6.25 ug/ml,>4.61
same,Log Reduction,[6]; 12.5 ug/ml,>4.61
same,Log Reduction,[6]; 25.0 ug/ml,>4.61
same,Log Reduction,[6]; 50.0 ug/ml,>4.61
same,MIC,[7]; [26],0.78 µg/mL
same,MIC,[8]; [26],25 µg/mL
same,MIC,[9]; [26],400 µg/mL
same,MIC,[10]; [26],12.5 µg/mL
"CC(C)[C@H](NC(=O)[C@H](CCCCN)NC(=O)[C@H](CCCNC(=N)N)NC(=O)CNC(=O)[C@@H](N)CCCNC(=N)N)C(=O)N[C@H](C(=O)N[C@@H](CCCNC(=N)N)C(=O)N[C@@H](CCCNC(=N)N)C(=O)NCCCC[C@H](NC(=O)[C@H](CCCNC(=N)N)NC(=O)[C@H](CCCNC(=N)N)NC(=O)[C@@H](NC(=O)[C@@H](NC(=O)[C@H](CCCCN)NC(=O)[C@H](CCCNC(=N)N)NC(=O)CNC(=O)[C@@H](N)CCCNC(=N)N)C(C)C)C(C)C)C(=O)N[C@@H](CCCCN)C(=O)O)C(C)C [V2 dimer, (SEQ ID NO: 44)2KK] (I: H-RGRKVVRRKK-OH / II: H-RGRKVVRR; amide I:9-II:C)",MIC,[11],12.5 µg/mL
same,cytotoxicity in comparison with native hBD3,[12],does not show cytotoxicity
same,MIC,[13],12.5 µg/mL
same,MIC,[14],6.25 µg/mL
same,MIC,[7]; Clinical DB16027 Source: Blood,6.25 µg/mL
same,MIC,[8]; [27],12.5 µg/mL
same,MIC,[15],6.25 µg/mL
same,MIC,[16],6.25 µg/mL
same,MIC,[17],12.5 µg/mL
same,MIC,[18],12.5 µg/mL
same,MIC,[19],25 µg/mL
same,MIC,[20],12.5 µg/mL
same,MIC,[21],12.5 µg/mL
same,MIC,[9]; [28],12.5 µg/mL
same,MIC,[22],12.5 µg/mL
same,MIC,[23],12.5 µg/mL
same,MIC,[24],12.5 µg/mL
same,MIC,[10]; Methicillin-resistant DM09808R Source: Eye,12.5 µg/mL
same,MIC,[25],12.5 µg/mL
same,Minimum inhibitory concentration (MIC),Kp ATCC 10031,1.4 µM
"GIINTLQKYYCRVRGGRCAVLSCLPKEEQIGKCSTRGRKCCRRKK (Homo sapien) [Wildtype hBD3, reference compound]",concentration at which cytotoxic,[12],about 15 μg/ml
"CC(C)[C@H](NC(=O)[C@@H](NC(=O)[C@H](CCCNC(=N)N)NC(=O)[C@H](CCCNC(=N)N)NC(=O)[C@@H](NC(=O)[C@@H](NC(=O)[C@H](CCCCN)NC(=O)[C@H](CCCNC(=N)N)NC(=O)CNC(=O)[C@@H](N)CCCNC(=N)N)C(C)C)C(C)C)C(C)C)C(=O)O [V4 monomer, RGRKVVRRVV] (H-RGRKVVRRVV-OH; N-terminus and C-terminus assumed)",MIC,[11],>50 µg/mL
same,MIC,[14],>50 µg/mL
same,MIC,[7]; Clinical DB16027 Source: Blood,>50 µg/mL
same,MIC,[8]; [27],>50 µg/mL
same,MIC,[15],>50 µg/mL
same,MIC,[16],>50 µg/mL
same,MIC,[17],>50 µg/mL
same,MIC,[18],>50 µg/mL
same,MIC,[19],>100 µg/mL
same,MIC,[20],>50 µg/mL
same,MIC,[21],>50 µg/mL
same,MIC,[9]; [28],>50 µg/mL
same,MIC,[22],>50 µg/mL
same,MIC,[23],25 µg/mL
same,MIC,[25],>50 µg/mL
